{"source": "patent US20210393623A1", "about": "(Jacobio Pharmaceuticals Co., Ltd., priority 2018, published 2021)"}
{"target": "T1, SHP2 (Homo sapiens, UniProt Q06124)", "T1 sequence (Q06124 1-593)": "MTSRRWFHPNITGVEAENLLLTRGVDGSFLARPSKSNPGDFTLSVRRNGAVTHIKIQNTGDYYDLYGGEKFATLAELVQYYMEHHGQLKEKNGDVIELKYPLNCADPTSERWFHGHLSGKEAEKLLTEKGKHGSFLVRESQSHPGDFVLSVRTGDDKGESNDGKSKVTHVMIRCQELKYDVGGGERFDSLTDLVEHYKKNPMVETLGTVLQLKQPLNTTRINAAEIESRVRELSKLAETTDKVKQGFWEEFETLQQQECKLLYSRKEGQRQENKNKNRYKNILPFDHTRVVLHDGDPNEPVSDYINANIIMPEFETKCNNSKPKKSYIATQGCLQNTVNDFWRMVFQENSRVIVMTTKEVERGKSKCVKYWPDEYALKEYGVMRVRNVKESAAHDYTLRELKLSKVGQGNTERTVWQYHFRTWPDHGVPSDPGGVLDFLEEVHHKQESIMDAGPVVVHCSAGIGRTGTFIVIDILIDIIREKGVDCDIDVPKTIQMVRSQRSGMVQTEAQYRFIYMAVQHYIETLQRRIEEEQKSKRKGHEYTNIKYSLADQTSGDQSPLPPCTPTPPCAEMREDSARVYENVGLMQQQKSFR", "assay": "Phosphatase Assay (Single Dose Inhibition)", "assay_type": "biochemical", "conditions": "compound at 0.02 μM (20nM); DiFMUP substrate 12 μM; SHP2 0.5 nM activated with dPEG8 peptide; DMSO control set to 100%; triplicate", "procedure": "Phosphatase Assay (Single Dose Inhibition) Assay Protocol: For single dose inhibition assays using 6,8-difluoro-4-methylumbelliferyl phosphate (DiFMUP) as a substrate, SHP2 samples (diluted to 0.5 nM in reaction buffer) were incubated with dPEG8 peptide for 30 min in reaction buffer[60 mM 3,3-dimethyl glutarate (pH7.2), 75 mM NaCl, 75 mM KCl, and 1 mM EDTA, 0.05% Tween 20, 2mM dithiothreitol (DTT) ] to active the PTP. DMSO [0.5% (v/v)] or compounds (20nM) were added to the mixture and incubated for 30 min at room temperature. Reactions were initiated by the addition of DiFMUP (12 μM; total reaction volume of 100 μL), and the fluorescence (excitation at 340 nm, emission at 450 nm) of the resulting solutions was measured on a 2104-0020 EnVision Xcite Multilabel Reader (PerkinElmer) after 30min. The experiment is carried out in triplicate. The value for the control sample (DMSO) was set to 100%, and the values for the compound-treated samples were expressed as activity relative to the control sample.", "units": {"inhibition at 0.02 µM": "%"}}
{"smiles": "Cc1nc(N2CCC3(CC2)Cc2ncccc2[C@H]3N)cnc1-c1cccc(Cl)c1Cl", "note": "[Example 2, (S)-1′-(5-(2,3-dichlorophenyl)-6-methylpyrazin-2-yl)-5,7-dihydrospiro[cyclopenta[b]pyridine-6,4′-piperidin]-5-amine]", "inhibition at 0.02 µM": 80}
{"smiles": "Cc1nc(N2CCC3(CC2)Cc2ccccc2[C@H]3N)c(C(=O)O)nc1-c1cccc(Cl)c1Cl", "note": "[Example 3, (S)-3-(1-amino-1,3-dihydrospiro[indene-2,4′-piperidin]-1′-yl)-6-(2,3-dichlorophenyl)-5-methylpyrazine-2-carboxylic acid]", "inhibition at 0.02 µM": 81}
{"smiles": "Cc1nc(N2CCC3(CC2)Cc2ccccc2[C@H]3N)c(C(N)=O)nc1-c1cccc(Cl)c1Cl", "note": "[Example 4, (S)-3-(1-amino-1,3-dihydrospiro[indene-2,4′-piperidin]-1′-yl)-6-(2,3-dichlorophenyl)-5-methylpyrazine-2-carboxamide]", "inhibition at 0.02 µM": 89}
{"smiles": "CCOC(=O)c1nc(Sc2ccnc(N)c2Cl)c(C)nc1N1CCC2(CC1)Cc1ccccc1[C@H]2N", "note": "[Example 5, ethyl (S)-3-(1-amino-1,3-dihydrospiro[indene-2,4′-piperidin]-1′-yl)-6-((2-amino-3-chloropyridin-4-yl)thio)-5-methylpyrazine-2-carboxylate]", "inhibition at 0.02 µM": 84}
{"smiles": "Cc1nc(N2CCC3(CC2)Cc2ccccc2[C@H]3N)cnc1Sc1ccnc(N)c1Cl", "note": "[Example 6, (S)-1′-(5-((2-amino-3-chloropyridin-4-yl)thio)-6-methylpyrazin-2-yl)-1,3-dihydrospiro[indene-2,4′-piperidin]-1-amine]", "inhibition at 0.02 µM": 89}
{"smiles": "Nc1nc(N2CCC3(CC2)Cc2ncccc2[C@H]3N)ncc1Sc1ccnc(N)c1Cl", "note": "[Example 8, (S)-1′-(4-amino-5-((2-amino-3-chloropyridin-4-yl)thio)pyrimidin-2-yl)-5,7-dihydrospiro[cyclopenta[b]pyridine-6,4′-piperidin]-5-amine]", "inhibition at 0.02 µM": 68}
{"smiles": "N#Cc1cnc2c(c1)[C@@H](N)C1(CCN(c3ccc(Sc4ccnc(N)c4Cl)cn3)CC1)C2", "note": "[Example 15, (S)-5-amino-1′-(5-((2-amino-3-chloropyridin-4-yl)thio)pyridin-2-yl)-5,7-dihydrospiro[cyclopenta[b]pyridine-6,4′-piperidine]-3-carbonitrile]", "inhibition at 0.02 µM": 64}
{"smiles": "COc1nccc(Sc2cnc(N3CCC4(CC3)Cc3ccc(SC)cc3[C@H]4N)cn2)c1Cl", "note": "[Example 19, (S)-1′-(5-((3-chloro-2-methoxypyridin-4-yl)thio)pyrazin-2-yl)-6-(methylthio)-1,3-dihydrospiro[indene-2,4′-piperidin]-1-amine]", "inhibition at 0.02 µM": 61}
{"smiles": "CC(C)Nc1nccc(Sc2cnc(N3CCC4(CC3)Cc3ccc(S(C)(=O)=O)cc3[C@H]4N)cn2)c1Cl", "note": "[Example 21, (S)-1′-(5-((3-chloro-2-(isopropylamino)pyridin-4-yl)thio)pyrazin-2-yl)-6-(methylsulfonyl)-1,3-dihydrospiro[indene-2,4′-piperidin]-1-amine]", "inhibition at 0.02 µM": 68}
{"smiles": "Cc1nc(N2CCC3(CC2)Cc2ccccc2[C@H]3N)c(CO)nc1-c1cccc(Cl)c1Cl", "note": "[Example 23, (S)-(3-(1-amino-1,3-dihydrospiro[indene-2,4′-piperidin]-1′-yl)-6-(2,3-dichlorophenyl)-5-methylpyrazin-2-yl)methanol]", "inhibition at 0.02 µM": 85}
{"smiles": "Cc1nc(N2CCC3(CC2)Cc2ccccc2[C@H]3N)c(CO)nc1Sc1ccnc(N)c1Cl", "note": "[Example 24, (S)-(3-(1-amino-1,3-dihydrospiro[indene-2,4′-piperidin]-1′-yl)-6-((2-amino-3-chloropyridin-4-yl)thio)-5-methylpyrazin-2-yl)methanol]", "inhibition at 0.02 µM": 87}
{"smiles": "Cc1nc(N2CCC3(CC2)Cc2ncccc2[C@H]3N)c(Br)nc1-c1cccc(Cl)c1Cl", "note": "[Example 25, (S)-1′-(3-bromo-5-(2,3-dichlorophenyl)-6-methylpyrazin-2-yl)-5,7-dihydrospiro[cyclopenta[b]pyridine-6,4′-piperidin]-5-amine]", "inhibition at 0.02 µM": 78}
{"smiles": "Cc1nc(N2CCC3(CC2)Cc2ncccc2[C@H]3N)c(C#N)nc1-c1cccc(Cl)c1Cl", "note": "[Example 26, (S)-3-(5-amino-5,7-dihydrospiro[cyclopenta[b]pyridine-6,4′-piperidin]-1′-yl)-6-(2,3-dichlorophenyl)-5-methylpyrazine-2-carbonitrile]", "inhibition at 0.02 µM": 67}
{"smiles": "Cc1nc(N2CCC3(CC2)Cc2ncccc2[C@H]3N)c(C(N)=O)nc1-c1cccc(Cl)c1Cl", "note": "[Example 27, (S)-3-(5-amino-5,7-dihydrospiro[cyclopenta[b]pyridine-6,4′-piperidin]-1′-yl)-6-(2,3-dichlorophenyl)-5-methylpyrazine-2-carboxamide]", "inhibition at 0.02 µM": 79}
{"smiles": "Cc1nc(N2CCC3(CC2)Cc2ncccc2[C@H]3N)c(O)nc1-c1cccc(Cl)c1Cl", "note": "[Example 28, (S)-3-(5-amino-5,7-dihydrospiro[cyclopenta[b]pyridine-6,4′-piperidin]-1′-yl)-6-(2,3-dichlorophenyl)-5-methylpyrazin-2-ol]", "inhibition at 0.02 µM": 74}
{"smiles": "Nc1nc(N2CCC3(CC2)Cc2ncccc2[C@H]3N)c(Br)nc1Sc1cccc(Cl)c1Cl", "note": "[Example 29, (S)-1′-(6-amino-3-bromo-5-((2,3-dichlorophenyl)thio)pyrazin-2-yl)-5,7-dihydrospiro[cyclopenta[b]pyridine-6,4′-piperidin]-5-amine]", "inhibition at 0.02 µM": 68}
{"smiles": "N#Cc1nc(Sc2cccc(Cl)c2Cl)c(N)nc1N1CCC2(CC1)Cc1ncccc1[C@H]2N", "note": "[Example 30, (S)-5-amino-3-(5-amino-5,7-dihydrospiro[cyclopenta[b]pyridine-6,4′-piperidin]-1′-yl)-6-((2,3-dichlorophenyl)thio)pyrazine-2-carbonitrile]", "inhibition at 0.02 µM": 80}
{"smiles": "NC(=O)c1nc(Sc2cccc(Cl)c2Cl)c(N)nc1N1CCC2(CC1)Cc1ncccc1[C@H]2N", "note": "[Example 31, (S)-5-amino-3-(5-amino-5,7-dihydrospiro[cyclopenta[b]pyridine-6,4′-piperidin]-1′-yl)-6-((2,3-dichlorophenyl)thio)pyrazine-2-carboxamide]", "inhibition at 0.02 µM": 82}
{"smiles": "Nc1nc(N2CCC3(CC2)Cc2ncccc2[C@H]3N)ccc1Sc1ccnc(N)c1Cl", "note": "[Example 32, (S)-1′-(6-amino-5-((2-amino-3-chloropyridin-4-yl)thio)pyridin-2-yl)-5,7-dihydrospiro[cyclopenta[b]pyridine-6,4′-piperidin]-5-amine]", "inhibition at 0.02 µM": 75}
{"smiles": "Nc1nccc(Sc2ccc(N3CCC4(CC3)Cc3ncccc3[C@H]4N)cn2)c1Cl", "note": "[Example 33, (S)-1′-(6-((2-amino-3-chloropyridin-4-yl)thio)pyridin-3-yl)-5,7-dihydrospiro[cyclopenta[b]pyridine-6,4′-piperidin]-5-amine]", "inhibition at 0.02 µM": 70}
{"smiles": "Cn1c(N2CCC3(CC2)Cc2ncccc2[C@H]3N)nc2[nH]nc(-c3cccc(Cl)c3Cl)c2c1=O", "note": "[Example 36, (S)-6-(5-amino-5,7-dihydrospiro[cyclopenta[b]pyridine-6,4′-piperidin]-1′-yl)-3-(2,3-dichlorophenyl)-5-methyl-1,5-dihydro-4H-pyrazolo[3,4-d]pyrimidin-4-one]", "inhibition at 0.02 µM": 88}
{"smiles": "Cn1c(N2CCC3(CC2)Cc2ccc(F)cc2[C@H]3N)nc2[nH]nc(-c3cccc(Cl)c3Cl)c2c1=O", "note": "[Example 37, (S)-6-(1-amino-6-fluoro-1,3-dihydrospiro[indene-2,4′-piperidin]-1′-yl)-3-(2,3-dichlorophenyl)-5-methyl-1,5-dihydro-4H-pyrazolo[3,4-d]pyrimidin-4-one]", "inhibition at 0.02 µM": 68}
{"smiles": "Cc1ccc(-c2n[nH]c3nc(N4CCC5(CC4)Cc4cc(F)c(F)c(F)c4[C@H]5N)n(C)c(=O)c23)s1", "note": "[Example 38, (S)-6-(1-amino-5,6,7-trifluoro-1,3-dihydrospiro[indene-2,4′-piperidin]-1′-yl)-5-methyl-3-(5-methylthiophen-2-yl)-1,5-dihydro-4H-pyrazolo[3,4-d]pyrimidin-4-one]", "inhibition at 0.02 µM": 53}
{"smiles": "N[C@@H]1c2cccnc2CC12CCN(c1nc3[nH]cc(-c4cccc(Cl)c4Cl)c3c(=O)[nH]1)CC2", "note": "[Example 39, (S)-2-(5-amino-5,7-dihydrospiro[cyclopenta[b]pyridine-6,4′-piperidin]-1′-yl)-5-(2,3-dichlorophenyl)-3,7-dihydro-4H-pyrrolo[2,3-d]pyrimidin-4-one]", "inhibition at 0.02 µM": 78}
{"smiles": "Cn1c(N2CCC3(CC2)Cc2ccccc2[C@H]3N)nc(N)c(Sc2ccnc(N)c2Cl)c1=O", "note": "[Example 40]", "inhibition at 0.02 µM": 68}
